Positions of bridges follow the written chain, without caps; N, C: chain ends. Non-standard residues stand in square brackets, D forms with d. Residues, ends and D or L forms follow the SMILES beside them. Phe(4-NO2) = N[C@@H](Cc1ccc([N+](=O)[O-])cc1)C(=O)O; Phe(4-Cl) = N[C@@H](Cc1ccc(Cl)cc1)C(=O)O; 1Nal = N[C@@H](Cc1cccc2ccccc12)C(=O)O; 2Nal = N[C@@H](Cc1ccc2ccccc2c1)C(=O)O; Tic = O=C(O)[C@@H]1Cc2ccccc2CN1; Pen = CC(C)(S)[C@H](N)C(=O)O
Assays:
[1] = target: T1, Urotensin-2 receptor (Homo sapiens, UniProt Q9UKP6); assay: Displacement of [125I]urotensin-2 from human UT2 receptor expressed in CHO-K1 cells by liquid scintillation counting; type: cell-based
T1 sequence (Q9UKP6 whole entry): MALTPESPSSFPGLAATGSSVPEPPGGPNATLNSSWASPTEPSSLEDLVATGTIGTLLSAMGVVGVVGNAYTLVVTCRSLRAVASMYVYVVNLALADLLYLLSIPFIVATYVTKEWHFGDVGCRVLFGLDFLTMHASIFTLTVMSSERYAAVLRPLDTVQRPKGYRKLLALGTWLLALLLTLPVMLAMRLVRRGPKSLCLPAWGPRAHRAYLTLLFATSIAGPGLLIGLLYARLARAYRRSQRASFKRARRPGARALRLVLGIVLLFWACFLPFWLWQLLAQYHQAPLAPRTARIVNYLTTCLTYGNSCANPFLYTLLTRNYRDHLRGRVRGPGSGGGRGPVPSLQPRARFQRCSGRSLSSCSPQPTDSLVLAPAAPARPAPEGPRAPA

[2] = target: T2, Urotensin-2 receptor (Rattus norvegicus) (UniProt P49684); assay: Antagonist activity at UT2 receptor in Albino rat aorta assessed as inhibition of […] aortic contraction; type: functional, tissue-based
T2 sequence (whole entry): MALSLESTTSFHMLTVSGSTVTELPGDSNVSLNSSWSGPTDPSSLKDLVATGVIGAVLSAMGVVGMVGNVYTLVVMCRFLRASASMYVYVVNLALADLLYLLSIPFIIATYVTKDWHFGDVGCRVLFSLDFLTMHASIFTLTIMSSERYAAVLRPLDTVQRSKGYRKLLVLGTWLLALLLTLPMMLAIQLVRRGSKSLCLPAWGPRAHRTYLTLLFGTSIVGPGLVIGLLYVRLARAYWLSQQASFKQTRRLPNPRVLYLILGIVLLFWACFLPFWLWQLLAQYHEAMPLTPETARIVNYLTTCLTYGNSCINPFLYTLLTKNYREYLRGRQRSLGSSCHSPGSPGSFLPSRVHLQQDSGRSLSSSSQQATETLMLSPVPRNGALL

[3] = target: T3, Urotensin-2 receptor (Rattus norvegicus, UniProt P49684); assay: Agonist activity at UT2 receptor in Albino rat aorta assessed as induction of aortic contraction
T3 sequence (P49684 whole entry): T2 sequence (whole entry)

Row | Structure (SMILES) | Ki [1] [nM] | pKb [2] | EC50 [3] [nM]
1 | CC(C)[C@H](NC(=O)[C@@H]1CSSC(C)(C)[C@H](NC(=O)[C@@H](N)Cc2ccccc2)C(=O)N[C@@H](Cc2ccccc2)C(=O)N[C@H](Cc2c[nH]c3ccccc23)C(=O)N[C@@H](CCCN)C(=O)N[C@@H](Cc2ccc(O)cc2)C(=O)N1)C(=O)O | 19.5 | – | –
2 | CC(C)[C@H](NC(=O)[C@@H]1CSSC(C)(C)[C@H](NC(=O)[C@H](C)N)C(=O)N[C@@H](Cc2ccccc2)C(=O)N[C@@H](Cc2c[nH]c3ccccc23)C(=O)N[C@@H](CCCCN)C(=O)N[C@@H](Cc2ccc(O)cc2)C(=O)N1)C(=O)O | 0.794 | – | 9.12
3 | CC(C)[C@H](NC(=O)[C@@H]1CSSC(C)(C)[C@@H](NC(=O)[C@@H]2Cc3ccccc3CN2)C(=O)N[C@@H](Cc2ccccc2)C(=O)N[C@H](Cc2c[nH]c3ccccc23)C(=O)N[C@@H](CCCN)C(=O)N[C@@H](Cc2ccc(O)cc2)C(=O)N1)C(=O)O | – | 8.94 | –
4 | CC(C)[C@H](NC(=O)[C@@H]1CSSC(C)(C)[C@@H](NC(=O)[C@H](C)N)C(=O)N[C@@H](Cc2ccccc2)C(=O)N[C@H](Cc2c[nH]c3ccccc23)C(=O)N[C@@H](CCCN)C(=O)N[C@@H](Cc2ccc(O)cc2)C(=O)N1)C(=O)O | – | 7.84 | –
5 | CC(C)[C@H](NC(=O)[C@@H]1CSSC(C)(C)[C@H](NC(=O)[C@@H](N)CCCCN)C(=O)N[C@@H](Cc2ccccc2)C(=O)N[C@H](Cc2c[nH]c3ccccc23)C(=O)N[C@@H](CCCN)C(=O)N[C@@H](Cc2ccc(O)cc2)C(=O)N1)C(=O)O | 219 | – | –
6 | CC(C)[C@H](NC(=O)[C@@H]1CSSC(C)(C)[C@@H](NC(=O)[C@@H](N)CCCCN)C(=O)N[C@@H](Cc2ccccc2)C(=O)N[C@H](Cc2c[nH]c3ccccc23)C(=O)N[C@@H](CCCN)C(=O)N[C@@H](Cc2ccc(O)cc2)C(=O)N1)C(=O)O | – | 7.49 | –
7 | CC(C)[C@H](NC(=O)[C@@H]1CSSC(C)(C)[C@H](NC(=O)[C@@H](N)Cc2cccc3ccccc23)C(=O)N[C@@H](Cc2ccccc2)C(=O)N[C@H](Cc2c[nH]c3ccccc23)C(=O)N[C@@H](CCCN)C(=O)N[C@@H](Cc2ccc(O)cc2)C(=O)N1)C(=O)O | 3.89 | – | –
8 | CC(C)[C@H](NC(=O)[C@@H]1CSSC(C)(C)[C@@H](NC(=O)[C@@H](N)Cc2ccc([N+](=O)[O-])cc2)C(=O)N[C@@H](Cc2ccccc2)C(=O)N[C@H](Cc2c[nH]c3ccccc23)C(=O)N[C@@H](CCCN)C(=O)N[C@@H](Cc2ccc(O)cc2)C(=O)N1)C(=O)O | – | 7.9 | –
9 | CC(C)[C@H](NC(=O)[C@@H]1CSSC(C)(C)[C@H](NC(=O)[C@@H]2Cc3ccccc3CN2)C(=O)N[C@@H](Cc2ccccc2)C(=O)N[C@@H](Cc2c[nH]c3ccccc23)C(=O)N[C@@H](CCCCN)C(=O)N[C@@H](Cc2ccc(O)cc2)C(=O)N1)C(=O)O (H-[Tic][Pen]FWKYCV-OH; disulfide 2-7) | 2.63 | – | 1.35
10 | CC(C)[C@H](NC(=O)[C@@H]1CSSC[C@H](NC(=O)[C@@H](N)CC(=O)O)C(=O)N[C@@H](Cc2ccccc2)C(=O)N[C@@H](Cc2c[nH]c3ccccc23)C(=O)N[C@@H](CCCCN)C(=O)N[C@@H](Cc2ccc(O)cc2)C(=O)N1)C(=O)O (H-DCFWKYCV-OH; disulfide 2-7) | – | – | 2.51
11 | CC(C)[C@H](NC(=O)[C@@H]1CSSC(C)(C)[C@H](NC(=O)[C@H](C)N)C(=O)N[C@@H](Cc2ccccc2)C(=O)N[C@H](Cc2c[nH]c3ccccc23)C(=O)N[C@@H](CCCN)C(=O)N[C@@H](Cc2ccc(O)cc2)C(=O)N1)C(=O)O | 1.66 | – | –
12 | CC(C)[C@H](NC(=O)[C@@H]1CSSC(C)(C)[C@H](NC(=O)[C@@H](N)Cc2ccc(Cl)cc2)C(=O)N[C@@H](Cc2ccccc2)C(=O)N[C@@H](Cc2c[nH]c3ccccc23)C(=O)N[C@@H](CCCCN)C(=O)N[C@@H](Cc2ccc(O)cc2)C(=O)N1)C(=O)O (H-[Phe(4-Cl)][Pen]FWKYCV-OH; disulfide 2-7) | 0.891 | – | 1.38
13 | CC(C)[C@H](NC(=O)[C@@H]1CSSC[C@H](NC(=O)[C@H](CC(=O)O)NC(=O)[C@@H]2CCCN2C(=O)[C@@H](NC(=O)[C@@H](N)CCC(=O)O)[C@@H](C)O)C(=O)N[C@@H](Cc2ccccc2)C(=O)N[C@@H](Cc2c[nH]c3ccccc23)C(=O)N[C@@H](CCCCN)C(=O)N[C@@H](Cc2ccc(O)cc2)C(=O)N1)C(=O)O [HUMAN UROTENSIN II] | – | – | 5.01
14 | CC(C)[C@H](NC(=O)[C@@H]1CSSC(C)(C)[C@H](NC(=O)[C@@H](N)Cc2ccccc2)C(=O)N[C@@H](Cc2ccccc2)C(=O)N[C@@H](Cc2c[nH]c3ccccc23)C(=O)N[C@@H](CCCCN)C(=O)N[C@@H](Cc2ccc(O)cc2)C(=O)N1)C(=O)O (H-F[Pen]FWKYCV-OH; disulfide 2-7) | 0.282 | – | 0.661
15 | CC(C)[C@H](NC(=O)[C@@H]1CSSC(C)(C)[C@@H](NC(=O)[C@@H](N)Cc2cccc3ccccc23)C(=O)N[C@@H](Cc2ccccc2)C(=O)N[C@H](Cc2c[nH]c3ccccc23)C(=O)N[C@@H](CCCN)C(=O)N[C@@H](Cc2ccc(O)cc2)C(=O)N1)C(=O)O | – | 8.5 | –
16 | CC(C)[C@H](NC(=O)[C@@H]1CSSC(C)(C)[C@H](NC(=O)[C@@H](N)CC(=O)O)C(=O)N[C@@H](Cc2ccccc2)C(=O)N[C@@H](Cc2c[nH]c3ccccc23)C(=O)N[C@@H](CCCCN)C(=O)N[C@@H](Cc2ccc(O)cc2)C(=O)N1)C(=O)O (H-D[Pen]FWKYCV-OH; disulfide 2-7) | – | – | 0.251
17 | CC(C)[C@H](NC(=O)[C@@H]1CSSC(C)(C)[C@H](NC(=O)[C@@H](N)Cc2cccc3ccccc23)C(=O)N[C@@H](Cc2ccccc2)C(=O)N[C@@H](Cc2c[nH]c3ccccc23)C(=O)N[C@@H](CCCCN)C(=O)N[C@@H](Cc2ccc(O)cc2)C(=O)N1)C(=O)O (H-[1Nal][Pen]FWKYCV-OH; disulfide 2-7) | 26.3 | – | 102
18 | CC(C)[C@H](NC(=O)[C@@H]1CSSC(C)(C)[C@H](NC(=O)[C@@H](N)CCCCN)C(=O)N[C@@H](Cc2ccccc2)C(=O)N[C@@H](Cc2c[nH]c3ccccc23)C(=O)N[C@@H](CCCCN)C(=O)N[C@@H](Cc2ccc(O)cc2)C(=O)N1)C(=O)O (H-K[Pen]FWKYCV-OH; disulfide 2-7) | 9.33 | – | 6.03
19 | CC(C)[C@H](NC(=O)[C@@H]1CSSC(C)(C)[C@@H](NC(=O)[C@@H](N)Cc2ccccc2)C(=O)N[C@@H](Cc2ccccc2)C(=O)N[C@H](Cc2c[nH]c3ccccc23)C(=O)N[C@@H](CCCN)C(=O)N[C@@H](Cc2ccc(O)cc2)C(=O)N1)C(=O)O | – | 8.68 | –

Continued, values first:

Row | Ki [1] [nM] | pKb [2] | EC50 [3] [nM] | Structure (SMILES)
20 | 15.8 | – | – | CC(C)[C@H](NC(=O)[C@@H]1CSSC(C)(C)[C@H](NC(=O)[C@@H](N)Cc2ccc([N+](=O)[O-])cc2)C(=O)N[C@@H](Cc2ccccc2)C(=O)N[C@H](Cc2c[nH]c3ccccc23)C(=O)N[C@@H](CCCN)C(=O)N[C@@H](Cc2ccc(O)cc2)C(=O)N1)C(=O)O
21 | – | 7.89 | – | CC(C)[C@H](NC(=O)[C@@H]1CSSC(C)(C)[C@@H](NC(=O)[C@@H](N)Cc2ccc3ccccc3c2)C(=O)N[C@@H](Cc2ccccc2)C(=O)N[C@H](Cc2c[nH]c3ccccc23)C(=O)N[C@@H](CCCN)C(=O)N[C@@H](Cc2ccc(O)cc2)C(=O)N1)C(=O)O
22 | 6.46 | – | 5.25 | CC(C)[C@H](NC(=O)[C@@H]1CSSC(C)(C)[C@H](NC(=O)[C@@H](N)Cc2ccc3ccccc3c2)C(=O)N[C@@H](Cc2ccccc2)C(=O)N[C@@H](Cc2c[nH]c3ccccc23)C(=O)N[C@@H](CCCCN)C(=O)N[C@@H](Cc2ccc(O)cc2)C(=O)N1)C(=O)O (H-[2Nal][Pen]FWKYCV-OH; disulfide 2-7)
23 | 9.33 | – | – | CC(C)[C@H](NC(=O)[C@@H]1CSSC(C)(C)[C@H](NC(=O)[C@@H]2Cc3ccccc3CN2)C(=O)N[C@@H](Cc2ccccc2)C(=O)N[C@H](Cc2c[nH]c3ccccc23)C(=O)N[C@@H](CCCN)C(=O)N[C@@H](Cc2ccc(O)cc2)C(=O)N1)C(=O)O
24 | 13.5 | – | 72.4 | CC(C)[C@H](NC(=O)[C@@H]1CSSC(C)(C)[C@H](NC(=O)[C@@H](N)Cc2ccc([N+](=O)[O-])cc2)C(=O)N[C@@H](Cc2ccccc2)C(=O)N[C@@H](Cc2c[nH]c3ccccc23)C(=O)N[C@@H](CCCCN)C(=O)N[C@@H](Cc2ccc(O)cc2)C(=O)N1)C(=O)O (H-[Phe(4-NO2)][Pen]FWKYCV-OH; disulfide 2-7)
25 | 11.7 | – | – | CC(C)[C@H](NC(=O)[C@@H]1CSSC(C)(C)[C@H](NC(=O)[C@@H](N)Cc2ccc3ccccc3c2)C(=O)N[C@@H](Cc2ccccc2)C(=O)N[C@H](Cc2c[nH]c3ccccc23)C(=O)N[C@@H](CCCN)C(=O)N[C@@H](Cc2ccc(O)cc2)C(=O)N1)C(=O)O
26 | 9.55 | – | – | CC(C)[C@H](NC(=O)[C@@H]1CSSC(C)(C)[C@H](NC(=O)[C@@H](N)Cc2ccc(Cl)cc2)C(=O)N[C@@H](Cc2ccccc2)C(=O)N[C@H](Cc2c[nH]c3ccccc23)C(=O)N[C@@H](CCCN)C(=O)N[C@@H](Cc2ccc(O)cc2)C(=O)N1)C(=O)O
27 | – | 7.85 | – | CC(C)[C@H](NC(=O)[C@@H]1CSSC(C)(C)[C@@H](NC(=O)[C@@H](N)Cc2ccc(Cl)cc2)C(=O)N[C@@H](Cc2ccccc2)C(=O)N[C@H](Cc2c[nH]c3ccccc23)C(=O)N[C@@H](CCCN)C(=O)N[C@@H](Cc2ccc(O)cc2)C(=O)N1)C(=O)O
